Measured values taken from paper PMC8079033, “Design, synthesis, anticancer evaluation, and molecular modelling studies of novel tolmetin derivatives as potential VEGFR-2 inhibitors and apoptosis inducers” (Journal of Enzyme Inhibition and Medicinal Chemistry, 2021).

Key:
Assay in all cases: NCI 60-cell line one-dose antiproliferative screen (SRB)
Assay type in all cases: cell-based
[1] = system: UO-31; details: Homo sapiens, read-out: growth inhibition % (GI%)
Method in brief: (§1)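 Compounds tested at a single 10 µM dose for 48 h at 37 °C after 24 h pre-incubation; cells TCA-fixed and stained with sulforhodamine B, absorbance at 515 nm. Percent growth calculated relative to no-compound control and time-zero cell count, reported as growth inhibition percentage.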

[2] = system: OVCAR-5; details: Homo sapiens, read-out: growth inhibition % (GI%)
Method in brief: as §1

[3] = system: A498; details: Homo sapiens, read-out: growth inhibition % (GI%)
Method in brief: as §1

[4] = system: SK-MEL-5; details: Homo sapiens, read-out: growth inhibition % (GI%)
Method in brief: as §1

[5] = system: A549/ATCC; details: Homo sapiens, read-out: growth inhibition % (GI%)
Method in brief: as §1

[6] = system: HCT-116; details: Homo sapiens, read-out: growth inhibition % (GI%)
Method in brief: as §1

[7] = system: LOX IMVI; details: Homo sapiens, read-out: growth inhibition % (GI%)
Method in brief: as §1

[8] = system: ACHN; details: Homo sapiens, read-out: growth inhibition % (GI%)
Method in brief: as §1

[9] = system: SF-539; details: Homo sapiens, read-out: growth inhibition % (GI%)
Method in brief: as §1

[10] = system: HOP-62; details: Homo sapiens, read-out: growth inhibition % (GI%)
Method in brief: as §1

[11] = system: EKVX; details: Homo sapiens, read-out: growth inhibition % (GI%)
Method in brief: as §1

[12] = system: IGROV1; details: Homo sapiens, IGROV-1, read-out: growth inhibition % (GI%)
Method in brief: as §1

[13] = system: NCI/ADR-RES; details: Homo sapiens, read-out: growth inhibition % (GI%)
Method in brief: as §1

[14] = system: PC-3; details: Homo sapiens, read-out: growth inhibition % (GI%)
Method in brief: as §1

[15] = system: SN 12 C; details: Homo sapiens, SN12C, read-out: growth inhibition % (GI%)
Method in brief: as §1

[16] = system: NCI-H460; details: Homo sapiens, read-out: growth inhibition % (GI%)
Method in brief: as §1

[17] = system: MDA-MB-231/ATCC; details: Homo sapiens, read-out: growth inhibition % (GI%)
Method in brief: as §1

[18] = system: K-562; details: Homo sapiens, K562, read-out: growth inhibition % (GI%)
Method in brief: as §1

[19] = system: 786-0; details: Homo sapiens, read-out: growth inhibition % (GI%)
Method in brief: as §1

[20] = system: MDA-MB-468; details: Homo sapiens, read-out: growth inhibition % (GI%)
Method in brief: as §1

[21] = system: U251; details: Homo sapiens, U-251, read-out: growth inhibition % (GI%)
Method in brief: as §1

[22] = system: CCRF-CEM; details: Homo sapiens, read-out: growth inhibition % (GI%)
Method in brief: as §1

[23] = system: M14; details: Homo sapiens, read-out: growth inhibition % (GI%)
Method in brief: as §1

[24] = system: T-47D; details: Homo sapiens, T47D, read-out: growth inhibition % (GI%)
Method in brief: as §1

[25] = system: HCT-15; details: Homo sapiens, read-out: growth inhibition % (GI%)
Method in brief: as §1

[26] = system: SNB-75; details: Homo sapiens, read-out: growth inhibition % (GI%)
Method in brief: as §1

[27] = system: NCI-H23; details: Homo sapiens, read-out: growth inhibition % (GI%)
Method in brief: as §1

[28] = system: MOLT-4; details: Homo sapiens, read-out: growth inhibition % (GI%)
Method in brief: as §1

[29] = system: NCI-H522; details: Homo sapiens, read-out: growth inhibition % (GI%)
Method in brief: as §1

[30] = system: OVCAR-8; details: Homo sapiens, read-out: growth inhibition % (GI%)
Method in brief: as §1

[31] = system: CAKI-1; details: Homo sapiens, read-out: growth inhibition % (GI%)
Method in brief: as §1

[32] = system: MCF7; details: Homo sapiens, read-out: growth inhibition % (GI%)
Method in brief: as §1

[33] = system: SNB-19; details: Homo sapiens, read-out: growth inhibition % (GI%)
Method in brief: as §1

Cc1ccc(C(=O)c2ccc(CC(=O)NN=Cc3c[nH]c4ccccc34)n2C)cc1 [Compound 5f, N′-((1H-Indol-3-yl)methylene)-2–(1-methyl-5–(4-methylbenzoyl)-1H-pyrrol-2-yl) acetohydrazide]
inhibition at 10 µM [1]: 32.8% | inhibition at 10 µM [2]: < 10% | inhibition at 10 µM [3]: 15.6% | inhibition at 10 µM [4]: < 10% | inhibition at 10 µM [5]: 15.4% | inhibition at 10 µM [6]: < 10% | inhibition at 10 µM [7]: 16.5% | inhibition at 10 µM [8]: 34.2% | inhibition at 10 µM [9]: < 10% | inhibition at 10 µM [10]: < 10% | inhibition at 10 µM [11]: 17.7% | inhibition at 10 µM [12]: 15.2% | inhibition at 10 µM [13]: < 10% | inhibition at 10 µM [14]: < 10% | inhibition at 10 µM [15]: < 10% | inhibition at 10 µM [16]: < 10% | inhibition at 10 µM [17]: 12.4% | inhibition at 10 µM [18]: < 10% | inhibition at 10 µM [19]: < 10% | inhibition at 10 µM [20]: 16.8% | inhibition at 10 µM [21]: 10.4% | inhibition at 10 µM [22]: 24.6% | inhibition at 10 µM [23]: < 10% | inhibition at 10 µM [24]: 22.1% | inhibition at 10 µM [25]: 16.8% | inhibition at 10 µM [26]: 25.5% | inhibition at 10 µM [27]: < 10% | inhibition at 10 µM [28]: 16.5% | inhibition at 10 µM [29]: 18.7% | inhibition at 10 µM [30]: < 10% | inhibition at 10 µM [31]: 17% | inhibition at 10 µM [32]: 27% | inhibition at 10 µM [33]: 12.5%
